# According to US20250169496A1, “USE OF 2-AMINO-3-HYDROXY-3-METHYLBUTYRIC ACID AND/OR 2-AMINO-3-(4-HYDROXYPHENYL) BUTYRIC ACID” (NANJING TIANNONG BIOTECHNOLOGY CO., LTD., priority 2021, published 2025):
# Columns and labels:
# [1] = system: Pseudomonas syringae PstDC3000; assay: Induced resistance of Arabidopsis to infection of Pseudomonas syringae; assay type: in vivo; conditions: for Disease index: Arabidopsis 3 d after PstDC3000 inoculation; for CFU/mg (number of bacteria per mg of leaves): Arabidopsis leaves 3 d after PstDC3000 inoculation; for Decrease of disease index / Decrease of number of bacteria per mg of leaves: compared to blank control
# Procedure: Take 2-amino-3-hydroxy-3-methylbutyric acid, dissolve it in sterile water, dilute the solution with sterile water by gradient into 100 nM, 1,000 nM and 10,000 nM solutions, set a blank control, and meanwhile add 0.02% Tween 20 as a surfactant. Spread Pseudomonas syringaePstDC3000 on an LB plate, and culture it at 28° C. for 48h; pick a monoclonal colony, inoculate it in a 50 mL centrifuge tube containing 2 mL of medium, culture it on a shaker at 28° C., 250 rpm, monitor changes of OD600 of the bacterial solution once every 1-2 h, and stop bacteria culturing before OD600 reaches 0.8; transfer 1 mL of the bacterial solution to a sterile 1.5 mL centrifuge tube, centrifuge it at 8000 rpm for 2 min, and collect the precipitate; remove the supernatant, wash the precipitate with 10 mM magnesium chloride for three times and centrifuge, lastly re-suspend PstDC3000 in the 10 mM magnesium chloride until its OD600 reaches 0.001, and keep it for future use. Soake Arabidopsis seeds in 75% alcohol for 3 min, then wash them with sterile water for 4 times, inoculate it in culture dishes filled with ½ MS medium, 12 seeds per dish, vernalize the ½ MS culture dishes containing seeds at 4° C. for 3 d to break dormancy, then put them in a 22° C. culture room with luminous intensity of 100μE m^−2s-^1(16 hillumination/8 h darkness), slowly pour the above 2-amino-3-hydroxy-3-methylbutyric acid at different concentrations into the culture dishes until the entire Arabidopsis seedlings are submerged after the seedlings have grown for 2 weeks, maintain this state for 2-3 minutes, and then pour the treatment solution out of the culture dishes, treat it once every 24 h, twice in total, inoculate PstDC3000 suspension (OD600=0.01) to Arabidopsis leaves by the same submerging method 24 h after the second treatment, seal the culture dishes with medical breathable adhesive after the inoculation, put them in the culture room for continued culturing. 3 d after, determine the number of bacteria after different treatments, observe the morbidity of Arabidopsis, and calculate the disease index by the method same as the disease index calculation formula in Embodiment 2.
# Grading standard of diseases caused by PstDC3000(with leaf as a unit): • Level 0: No disease spot on the leaf surface; • Level 1: The area of the disease spots accounts for 0%-10% of the whole leaf area; • Level 2: The area of the disease spots accounts for 10%-25% of the whole leaf area; • Level 3: The area of the disease spots accounts for 25%-50% of the whole leaf area; • Level 4: The area of the disease spots accounts for 50%-75% of the whole leaf area; • Level 5: The area of the disease spots accounts for […] of the whole leaf area.
# [2] = system: ryegrass under high-temperature stress; assay: Ryegrass under high-temperature stress; assay type: in vivo; conditions: for PIABS (photosynthetic performance index): ryegrass after 45° C. for 12 h; for Heat damage index: 45° C. 12 h, recovered 7 d
# Procedure: Set 4 groups for each concentration and meanwhile set a room-temperature blank control. Weigh 0.8 g of ryegrass seeds per bowl, sow them in bowls with a diameter of 8.5 cm, and grow in a greenhouse at 25° C., RH 60%-70% and luminous intensity of 200 μmol m^−2s^−1(12 h illumination/12 h darkness). Start treatment after ryegrass has grown for 7 dby the method of spraying a 2-amino-3-(4-hydroxyphenyl) butyric acid solution on the leaf surface twice in 24 h.24 h after the second treatment, transfer them to an illumination incubator of 45° C. for high-temperature stress treatment, and after 12 h, conduct dark treatment at room temperature for 30 min, then determine the chlorophyll fluorescence of […] leaves by plant efficiency Handy-PEA, then transfer the plants to a 25° C. greenhouse and recover them for 7 d, observe and calculate the damage condition of the plants and calculate the heat damage levels. The heat damage grading standard is shown in Table 9 and the heat damage calculation formula is as follows.
# rat brain glial cells = conditions: concentration of 10μgmL^−1; cited from earlier work
# [3] = system: Arabidopsis under high-temperature stress; assay: Arabidopsis under high-temperature stress; assay type: in vivo; conditions: for PIABS (photosynthetic performance index): Arabidopsis after 45° C. for 12 h; for Heat damage index: 45° C. 12 h, recovered 7 d
# Procedure: Take 2-amino-3-hydroxy-3-methylbutyric acid, dissolve it with distilled water, then dilute the solution with distilled water by gradient into 10 nM, 100 nM, 1,000 nM and 10,000 nM solutions, set a blank control, and meanwhile add 0.02% Tween 20 as a surfactant. Set 4 groups for each concentration and meanwhile set a room-temperature blank control. Sow about 50 Arabidopsis seeds in each bowl with a diameter of 8.5 cm, and grow in a greenhouse at 25° C., RH 60%-70% and luminous intensity of 200 μmol m^−2s^−1(16 h illumination/8 h darkness). Start treatment in 21 d of the Arabidopsis seedling stage by the method of spraying a 2-amino-3-hydroxy-3-methylbutyric acid solution on the leaf surface twice in 24 h. 24 h after the second treatment, transfer them to an illumination incubator of 45° C. for high-temperature stress treatment, and after 12 h, conduct dark treatment at room temperature for 30 min, then determine the chlorophyll fluorescence of Arabidopsis leaves by plant efficiency Handy-PEA, then transfer the plants to a 25° C. greenhouse and recover them for 7 d, observe and calculate the damage condition of the plants and calculate the heat damage levels. The heat damage grading standard is shown in Table 9 and the heat damage index calculation formula is as follows.
# [4] = 10,000 nM (so in the source), ryegrass, high-temperature stress, vs 0 nM
# [5] = 10,000 nM, Arabidopsis, high-temperature stress, vs 0 nM
structure (smiles),measurement,setting,value
CC(c1ccc(O)cc1)C(N)C(=O)O (stereo not drawn) [2-amino-3-(4-hydroxyphenyl) butyric acid],Disease index,[1]; 100 nM,40.06 ± 0.98 b
same,CFU/mg (number of bacteria per mg of leaves),[1]; 100 nM,4.43 × 10^5 CFU/mg
same,Decrease of disease index,[1]; 100 nM,51.11%
same,Decrease of number of bacteria per mg of leaves,[1]; 100 nM,86.20%
same,Disease index,"[1]; 1,000 nM",36.81 ± 0.28 c
same,CFU/mg (number of bacteria per mg of leaves),"[1]; 1,000 nM",3.04 × 10^5 CFU/mg
same,Decrease of disease index,"[1]; 1,000 nM",55.07%
same,Decrease of number of bacteria per mg of leaves,"[1]; 1,000 nM",90.53%
same,Decrease of disease index,"[1]; 10,000 nM",66.84%
same,Decrease of number of bacteria per mg of leaves,"[1]; 10,000 nM",91.37%
same,PIABS (photosynthetic performance index),[2]; 1 nM,0.78 ± 0.23bc
same,Heat damage index,"[2]; 1 nM, ryegrass",81%
same,PIABS (photosynthetic performance index),[2]; 10 nM,0.95 ± 0.41bc
same,Heat damage index,"[2]; 10 nM, ryegrass",66.67%
same,PIABS (photosynthetic performance index),[2]; 100 nM,1.50 ± 0.54b
same,Heat damage index,"[2]; 100 nM, ryegrass",55%
same,PIABS (photosynthetic performance index),"[2]; 1,000 nM",2.61 ± 1.05ab
same,Heat damage index,"[2]; 1,000 nM, ryegrass",35%
same,Decrease of heat damage index,[2]; [4],55%
same,Increase of PIABS,[2]; [4],366%
CC(C)(O)C(N)C(=O)O (stereo not drawn) [2-amino-3-hydroxy-3-methylbutyric acid],Disease index,[1]; 100 nM,40.90 ± 2.41 b
same,CFU/mg (number of bacteria per mg of leaves),[1]; 100 nM,9.46 × 10^5 CFU/mg
same,Decrease of disease index,[1]; 100 nM,43.22%
same,Decrease of number of bacteria per mg of leaves,[1]; 100 nM,70.34%
same,Disease index,"[1]; 1,000 nM",38.90 ± 1.96 b
same,CFU/mg (number of bacteria per mg of leaves),"[1]; 1,000 nM",7.11 × 10^5 CFU/mg
same,Decrease of disease index,"[1]; 1,000 nM",45.60%
same,Decrease of number of bacteria per mg of leaves,"[1]; 1,000 nM",77.71%
same,CFU/mg (number of bacteria per mg of leaves),"[1]; 10,000 nM",3.81×10^5 CFU/mg
same,Decrease of disease index,"[1]; 10,000 nM",58.07%
same,Decrease of number of bacteria per mg of leaves,"[1]; 10,000 nM",88.06%
same,Toxicity to rat brain glial cells,rat brain glial cells,weakly toxic
same,PIABS (photosynthetic performance index),[3]; 10 nM,10.60 ± 0.32 c
same,Heat damage index,"[3]; 10 nM, Arabidopsis",60%
same,PIABS (photosynthetic performance index),[3]; 100 nM,11.27 ± 0.89 c
same,Heat damage index,"[3]; 100 nM, Arabidopsis",45%
same,PIABS (photosynthetic performance index),"[3]; 1,000 nM",13.61 ± 0.38 b
same,Heat damage index,"[3]; 1,000 nM, Arabidopsis",20%
same,PIABS (photosynthetic performance index),"[3]; 10,000 nM",15.60 ± 0.78 ab
same,Heat damage index,"[3]; 10,000 nM, Arabidopsis",15%
same,Decrease of heat damage index,[3]; [5],65%
same,Increase of PIABS,[3]; [5],106%
